Results as given in US8129380B2, “Phthalazinone derivatives” (AstraZeneca AB, priority 2008, dated 2012).

Tested on: HeLa cells
Experiment: Potentiation Factor (PF50): MMS growth inhibition, SRB assay
Assay type: cell-based
Conditions: MMS 0-10 μg/ml, ratio IC50 control / IC50 + inhibitor; for PF50 (200 nM): PARP inhibitor at 200 nM; for PF50 (30 nM): PARP inhibitor at 30 nM
Procedure: The Potentiation Factor (PF50) for compounds is calculated as a ratio of the IC50 of control cell growth divided by the IC50 of cell growth+PARP inhibitor. Growth inhibition curves for both control and compound treated cells are in the presence of the alkylating agent methyl methanesulfonate (MMS). The test compounds were used at a fixed concentration of 0.2 micromolar. The concentrations of MMS were over a range from 0 to 10 μg/ml.
2,000 HeLa cells were seeded into each well of a flat-bottomed 96-well microtiter plate in a volume of 100 μl and incubated for 6 hours at 37° C. Cells were either replaced with media alone or with media containing PARP inhibitor at a final concentration of 30 nM or 200 nM. […] Cells treated with PARP inhibitor alone were used to assess the growth inhibition by the PARP inhibitor.
Cells were left for a further 16 hours before replacing the media and allowing the cells to grow for a further 72 hours at 37° C. The media was then removed and the cells fixed with 100 μl of ice cold 10% (w/v) trichloroacetic acid. The plates were incubated at 4° C. for 20 minutes and then washed four times with water. Each well of cells was then stained with 100 μl of 0.4% (w/v) SRB in 1% acetic acid for 20 minutes before washing four times with 1% acetic acid. Plates were then dried for 2 hours at room temperature. The dye from the stained cells was solubilized by the addition of 100 μl of 10 mM Tris Base into each well.

Compound	PF50 (200 nM)	PF50 (30 nM)
O=C(c1cc(Cc2n[nH]c(=O)c3ccccc23)ccc1F)N1CCC(O)CC1 [Compound 2a, 4-(4-fluoro-3-(4-hydroxypiperidine-1-carbonyl)benzyl)phthalazin-1(2H)-one]	3	
O=C(c1cc(Cc2n[nH]c(=O)c3ccccc23)ccc1F)N1CCC(Oc2ccc(F)cc2)CC1 [Compound 2c]	7	1.9
O=C(c1cc(Cc2n[nH]c(=O)c3ccccc23)ccc1F)N1CCC(OCC2CC2)CC1 [Compound 2g]		4.3
CC(C)COC1CCN(C(=O)c2cc(Cc3n[nH]c(=O)c4ccccc34)ccc2F)CC1 [Compound 2h]		2.9
O=C(c1cc(Cc2n[nH]c(=O)c3ccccc23)ccc1F)N1CCC(Oc2ccccn2)CC1 [Compound 2i]		16.7
O=C(c1cc(Cc2n[nH]c(=O)c3ccccc23)ccc1F)N1CCC(Oc2ccncc2)CC1 [Compound 2j]		3.0
O=C(c1cccc(Cc2n[nH]c(=O)c3c(F)ccc(F)c23)c1)N1CCC(OCC2CC2)CC1 [Compound 4a]		1.2
O=C(c1cccc(Cc2n[nH]c(=O)c3c(F)ccc(F)c23)c1)N1CCC(Oc2ccccn2)CC1 [Compound 4b]		2.2
CC(C)COC1CCN(C(=O)c2cccc(Cc3n[nH]c(=O)c4c(F)ccc(F)c34)c2)CC1 [Compound 4c]		1.2
O=C(c1cc(Cc2n[nH]c(=O)c3ccccc23)ccn1)N1CCC(Oc2ccc(Cl)cc2)CC1 [Compound 6a]	4.2	1.7
O=C(c1cc(Cc2n[nH]c(=O)c3ccccc23)ccn1)N1CCC(Oc2ccc(F)cc2)CC1 [Compound 6b]	3.5	1.5
COC1CCN(C(=O)c2cc(Cc3n[nH]c(=O)c4ccccc34)ccn2)CC1 [Compound 6c]	1.5	1.2
O=C(c1cc(Cc2n[nH]c(=O)c3ccccc23)ccn1)N1CCC(Oc2ccccc2)CC1 [Compound 6d]	3.5	1.4
O=C(c1cc(Cc2n[nH]c(=O)c3ccccc23)ccn1)N1CCC(Oc2ccncc2)CC1 [Compound 6e]	1.9	1.5
O=C(c1cc(Cc2n[nH]c(=O)c3ccccc23)ccn1)N1CCC(Oc2ccccn2)CC1 [Compound 6f]	5.0	1.8
COCCOC1CCN(C(=O)c2cc(Cc3n[nH]c(=O)c4ccccc34)ccc2F)CC1 [Compound 7, 4-(4-fluoro-3-(4-(2-methoxyethoxy)piperidine-1-carbonyl)benzyl)phthalazin-1(2H)-one]		4.0
COc1cccc(OC2CCN(C(=O)c3cc(Cc4n[nH]c(=O)c5ccccc45)ccc3F)CC2)c1 [Compound 8a, 4-[[4-fluoro-3-[4-(3-methoxyphenoxy)piperidine-1-carbonyl]phenyl]methyl]-2H-phthalazin-1-one]		1.6

Compound	PF50 (200 nM)	PF50 (30 nM)
COc1ccc(OC2CCN(C(=O)c3cc(Cc4n[nH]c(=O)c5ccccc45)ccc3F)CC2)cc1 [Compound 8b, 4-[[4-fluoro-3-[4-(4-methoxyphenoxy)piperidine-1-carbonyl]phenyl]methyl]-2H-phthalazin-1-one]		23.6
CCCOC1CCN(C(=O)c2cc(Cc3n[nH]c(=O)c4ccccc34)ccc2F)CC1 [Compound 8c, 4-[[4-fluoro-3-(4-propoxypiperidine-1-carbonyl)phenyl]methyl]-2H-phthalazin-1-one]		12.2
COc1ccccc1OC1CCN(C(=O)c2cc(Cc3n[nH]c(=O)c4ccccc34)ccc2F)CC1 [Compound 8d, 4-[[4-fluoro-3-[4-(2-methoxyphenoxy)piperidine-1-carbonyl]phenyl]methyl]-2H-phthalazin-1-one]		1.2
O=C(c1cc(Cc2n[nH]c(=O)c3ccccc23)ccc1F)N1CCC(OCc2ccccc2)CC1 [Compound 8e, 4-[[4-fluoro-3-(4-phenylmethoxypiperidine-1-carbonyl)phenyl]methyl]-2H-phthalazin-1-one]		1.4
N#CCc1ccc(OC2CCN(C(=O)c3cc(Cc4n[nH]c(=O)c5ccccc45)ccc3F)CC2)cc1 [Compound 8f, 2-[4-[1-[2-fluoro-5-[(4-oxo-3H-phthalazin-1-yl)methyl]benzoyl]piperidin-4-yl]oxyphenyl]acetonitrile]		4.1
O=C(c1cc(Cc2n[nH]c(=O)c3ccccc23)ccc1F)N1CCC2(CC1)OCc1ccccc12 [Compound 9, 4-(4-fluoro-3-(3H-spiro[isobenzofuran-1,4′-piperidine]-1′-ylcarbonyl)benzyl)phthalazin-1(2H)-one]		1.3
CC(C)OC1CCN(C(=O)c2cc(Cc3n[nH]c(=O)c4ccccc34)ccc2F)CC1 [Compound 11, 4-(4-fluoro-3-(4-isopropoxypiperidine-1-carbonyl)benzyl)phthalazin-1(2H)-one]		33.6
CC(C)OC1CCN(C(=O)c2cccc(Cc3n[nH]c(=O)c4ccccc34)c2)CC1 [Compound 12]		2.1
O=C(c1cc(Cc2n[nH]c(=O)c3ccccc23)ccc1F)N1CCC(OC2CCC2)CC1 [Compound 15, 4-(3-(4-cyclobutoxypiperidine-1-carbonyl)-4-fluorobenzyl)phthalazin-1(2H)-one]		4.4
C=CCOC1CCN(C(=O)c2cc(Cc3n[nH]c(=O)c4ccccc34)ccc2F)CC1 [Compound 16]		3.4
O=C(c1cc(Cc2n[nH]c(=O)c3ccccc23)ccc1F)N1CCC(OC(F)F)CC1 [Compound 19, 4-(3-(4-(difluoromethoxy)piperidine-1-carbonyl)-4-fluorobenzyl)phthalazin-1(2H)-one]		2.5
O=C(c1cc(Cc2n[nH]c(=O)c3ccccc23)ccc1F)N1CCC(OCC2CCCO2)CC1 (stereo not shown) [Compound 20, 4-[[4-fluoro-3-[4-(oxolan-2-ylmethoxy)piperidine-1-carbonyl]phenyl]methyl]-2H-phthalazin-1-one]		2.0
COC1(C)CCN(C(=O)c2cc(Cc3n[nH]c(=O)c4ccccc34)ccc2F)CC1 [Compound 24, 4-[[4-fluoro-3-(4-methoxy-4-methylpiperidine-1-carbonyl)phenyl]methyl]-2H-phthalazin-1-one]		1.5
CC(C)OC1CCN(C(=O)c2cc(Cc3n[nH]c(=O)c4ccccc34)ccn2)CC1 [Compound 25, 4-[[2-(4-propan-2-yloxypiperidine-1-carbonyl)pyridin-4-yl]methyl]-2H-phthalazin-1-one]		2.1
O=C(c1cc(Cc2n[nH]c(=O)c3ccccc23)ccc1F)N1CCC(Oc2ccncn2)CC1 [Compound 26a, 4-(4-fluoro-3-(4-(pyrimidin-4-yloxy)piperidine-1-carbonyl)benzyl)phthalazin-1(2H)-one]		3.7
Cc1ccc(OC2CCN(C(=O)c3cc(Cc4n[nH]c(=O)c5ccccc45)ccc3F)CC2)nn1 [Compound 26b]		1.5
